Data published in patent US20240043473A1, “NOOTROPIC PEPTIDES FOR TREATING LYSOSOMAL STORAGE DISEASES” (Phoenix Nest Inc., priority 2021, published 2024).
Entries after “also recorded” stand apart in the source; their conditions may differ. No end group written: not given here.

Key:
Type in all cases: in vivo, mouse
[1] = system: somatosensory cortex and hippocampus of Hgsnat^P304L mice; test: Brain immunohistochemistry after chronic treatment (synaptic markers, astrocytosis, microgliosis, lysosomal puncta)
Description: Mouse brains were collected from animals perfused with 4% PFA in PBS and post-fixed in 4% PFA in PBS overnight. Brains were cryopreserved in 30% sucrose for 2 days at 4° C., embedded in Tissue-Tek® OCT Compound and stored at −80° C. Brains were cut in 40 μm-thick sections and stored in cryopreservation buffer (0.05 M sodium phosphate buffer pH 7.4, 15% sucrose, 40% ethylene glycol) at −20° C. pending immunohistochemistry. Mouse brain sections were washed 3 times with PBS and permeabilized/blocked by incubating in 5% bovine serum albumin (BSA), 0.3% Triton X-100 in PBS for 1 h at room temperature. Incubation with primary antibodies, diluted in 1% BSA, 0.3% Triton X-100 in PBS, was performed overnight at 4° C.
The mouse brain sections were washed 3 times with PBS and counterstained with Alexa Fluor-labeled secondary antibodies (dilution 1:400) for 2 h at room temperature. After washing 3 times with PBS, the mouse brain sections were treated with TrueBlack® Lipofuscin Autofluorescence Quencher (Biotium, 23007, dilution 1:10) for 1 min, and then again washed 3 times with PBS. The slides were mounted with Prolong Gold Antifade mounting reagent with DAPI (Invitrogen, P36935) and analyzed using Leica DM 5500 Q upright confocal microscope (10×, 40×, and 63× oil objective, N.A. 1.4). Images were processed and quantified using ImageJ 1.50i software (National Institutes of Health. Bethesda, MD, USA) in a blinded fashion. Panels were assembled with Adobe Photoshop.
(§1) Starting from 3 weeks of age, WT C57B16 and homozygous Hgsnat^P304L male and female mice were randomly divided in treatment and control groups (6-13 mice/sex/genotype/treatment; see Table I). The control group was daily administered with saline (5 μL to each nostril), while for the treatment group, saline was supplemented with 125 µg of AVP6/mL, which would result in a dose of approximately 50 μg/kg BW/day. The peptide formulation was prepared once, aliquoted and kept frozen at −80° C. until use. At 4 months, all mice were studied by EPM, OF, YM and NOR behavioral tests. Administration of the drug or saline was continued through the days on which the assays were conducted. Then approximately at 5 months 4-5 mice in each group were sacrificed. Their blood plasma was collected, and their tissues were either snap-frozen or fixed and cryopreserved to analyze CNS pathology as described above. For the remaining mice, treatment was continued and their behaviour was studied again at the age of 6 months using OF. NOR and YM tests. Starting from the age of 8 months, Hgsnat^P304L treated and untreated mice were daily studied for the signs of urinary retention. When such signs were detected, the mice were studied by ERG and sacrificed within 1-2 days. Finally, the remaining treated and untreated WT mice were studied by ERG and sacrificed at the end of the study, approximately at 10 months of age.
After completion of the behavioural analysis at 4 months, 50% of mice in each group were sacrificed for analysis of CNS pathology and biochemical testing. To study the effect of the treatment on synaptic architecture, we have stained the brain sections for presynaptic (VGLUT1) and postsynaptic (PSD-95, BDNF) markers and quantified their levels in the CA1 area of hippocampi and in layers 3-4 of somatosensory cortex.
The terminal CNS pathology was studied using the same set of biomarkers as at 4 months, either by IHC (astrocytosis, microgliosis, synaptic markers SYN1, PSD-95, […], BDNF) or by biochemical (total β-hexosaminidase activity, expression levels of inflammatory cytokines) assays.

[2] = Body weight measured weekly during chronic administration; details: chronic intranasal administration; Hgsnat^P304L or WT mice
Description: WT, and Hgsnat^P304L mice were randomly assigned to the treatment and control groups. The cohort size (18 mice/sex/treatment) was calculated based on mean variability of replicates in previous behavioral tests in Hgsnat^P304L mice to detect a ˜40% difference between means (power=0.8). Treatment was started at weaning (P21) which corresponds to neurodevelopmental human age of 3 years, the time of disease onset for majority of Sanfilippo patients. Since most patients are diagnosed post-symptomatically, this age would most likely become the treatment starting point for the most of patients. […] To test if chronic administration of the peptide results in major metabolic changes, the mouse body weight was measured weekly.

[3] = system: Hgsnat-Geo and Hgsnat^P304L MPS IIIC mice; test: Novel Object Recognition test
Description: Method: Novel object recognition test that studies working memory of mice by measuring their ability to discriminate a familiar from a novel object. AVP6 was administered intranasally at a daily dose 50 μg/kg (5 μl/nostril) for 10 consecutive days before the experimental day.
Novel object recognition test was used for assessing short-term recognition memory. Mice were placed individually in a 44×33×20 cm (length×width×height) testing chamber with white Plexiglas walls for 10 min habituation period and returned to their home cage. The next day, mice were placed in the testing chamber for 10 min with two identical objects (red plastic towers, 3×1.5×4.5 cm), returned to the home cages, and 1 hour later, placed back into the testing chamber in the presence of one of the original objects and one novel object (a blue plastic base, 4.5×4.5×2 cm) for 10 min. After each mouse, the test arena as well as the plastic objects were cleaned with 70% ethanol to avoid olfactory cue bias. The discrimination index (DI) was calculated as the difference of the exploration time between the novel and old object divided by total exploration time.
as §1, with “Finally, the remaining treated and untreated WT mice were studied by ERG and sacrificed at the end of the study, approximately at 10 months of age.” left out
The ability of the peptide to improve the memory deficits was tested in the 4-months-old Hgsnat-Geo mice using the Novel Object Recognition (NOR) test that studies working memory of mice by measuring their ability to discriminate a familiar object a novel one. […] Immediately after the test, mice were sacrificed and the levels of mature BDNF protein were measured in their hippocampi by immunoblot.

[4] = chronic daily 50 μg/kg BW from 3 weeks, Hgsnat^P304L mice at sacrifice (10-11 months)

## AVP6: N-terminally acetylated Semax, a nootropic peptide having the amino acid sequence of MEHFPGP (SEQ ID NO:1) (Ac-MEHFPGP)
[1]; chronic daily 50 μg/kg BW from 3 weeks, Hgsnat^P304L mice at 5 months
  levels of synaptic markers VGLUT1, PSD-95 and BDNF in CA1 hippocampus and somatosensory cortex: are rescued
[1]; chronic daily 50 μg/kg BW from 3 weeks, Hgsnat^P304L mice at 5 months, vs saline
  GFAP+ astrocytes and CD68+ activated microglia in cortex and hippocampus: normalizes astrocytosis and microgliosis; also recorded: are reduced
[1]; [4]
  levels of post-synaptic proteins PSD-95 and BDNF: completely recovered; also recorded: are rescued in hippocampus and partially rescued in the somatosensory cortex
  levels of presynaptic proteins GLUT1 (VGLUT1) and SYN1: either increased in the AVP6-treated as compared with saline-treated Hgsnat^P304L mice, or remained significantly lower than those in WT animals; also recorded: are rescued in hippocampus and partially rescued in the somatosensory cortex
[1]; chronic daily 50 μg/kg BW, Hgsnat^P304L mice at 5 months, vs saline
  levels and sizes of LAMP2+/HS+ or GM2-ganglioside+ lysosomal puncta in cortical/hippocampal neurons: remained similar
[1]; chronic daily 50 μg/kg BW, Hgsnat^P304L mice at 10-11 months, vs saline, cortex levels remained above WT
  markers of astrocytosis and microgliosis, GFAP and CD68: significantly reduced; also recorded: reduces it; also recorded: reduces levels of activated GFAP+ astrocytes in the cortex (D) and CD68+ microglia in both cortex and hippocampus
[1]; chronic daily 50 μg/kg BW, Hgsnat^P304L mice at terminal timepoint
  LAMP2 levels in brain sections compared with WT: remained significantly increased
[2]
  body weight and body weight gain, treated vs untreated: No difference in body weight and body weight gain
[3]; chronic 50 μg/kg BW/day, Hgsnat^P304L mice at 6 months
  short-term memory deficit, Novel Object Recognition: partially rescues deficits in spatial and short-term memory
[3]; chronic daily intranasal 50 μg/kg BW from 3 weeks, Hgsnat^P304L mice at 4 months
  short-term memory deficit (discrimination and recognition indexes), Novel Object Recognition: rescues deficits in spatial and short-term memory; also recorded: show the rescue of all above deficits
[3]; intranasal 50 μg/kg daily for 10 consecutive days, 4-month-old Hgsnat-Geo mice
  working (short-term) memory deficit: discrimination index and recognition index, Novel Object Recognition: significantly recovered memory deficits; also recorded: rescues working memory deficits; also recorded: This deficit is rescued
[3]; intranasal 50 μg/kg daily for 10 days, WT mice vs saline
  discrimination index and recognition index in WT mice, Novel Object Recognition: trend for an increase
